Patent publication US9745274B2, “Compound, organic cation transporter 3 detection agent, and organic cation transporter 3 activity inhibitor” (SHIN NIPPON BIOMEDICAL LABORATORIES, LTD., priority 2013, dated 2017)

Experiments:
[1] = biological target: T1, human organic cation transporter 3 (hOCT3) (Homo sapiens, UniProt O75751); assay: Histamine incorporation experiment in HEK293 cells expressing hOCT3 (OCT3 inhibition activity); assay type: cell-based; settings: for OCT3 Inhibition Rate (%): Tables 3-1 to 3-15, in a manner similar to Example 12 (30 μM there), concentration not given in the tables; for remaining activity at 10 µM / remaining activity at 30 µM: HEK293, 1 min, no inhibitor = 100%, read-out: Histamine Incorporation Rate to Control (%); for remaining activity at 10 µM / inhibition at 10 µM: Compound Concentration 10 μM; for remaining activity at 30 µM / inhibition at 30 µM: Compound Concentration 30 μM; for remaining activity at 30 µM: [3H]histamine 100 nM, 1 minute; for inhibition at 10 µM / inhibition at 30 µM: HEK293, 100% minus histamine incorporation rate
T1 construct: expressed in transfected cells; host or cells: HEK293
T1 sequence (O75751 1-556): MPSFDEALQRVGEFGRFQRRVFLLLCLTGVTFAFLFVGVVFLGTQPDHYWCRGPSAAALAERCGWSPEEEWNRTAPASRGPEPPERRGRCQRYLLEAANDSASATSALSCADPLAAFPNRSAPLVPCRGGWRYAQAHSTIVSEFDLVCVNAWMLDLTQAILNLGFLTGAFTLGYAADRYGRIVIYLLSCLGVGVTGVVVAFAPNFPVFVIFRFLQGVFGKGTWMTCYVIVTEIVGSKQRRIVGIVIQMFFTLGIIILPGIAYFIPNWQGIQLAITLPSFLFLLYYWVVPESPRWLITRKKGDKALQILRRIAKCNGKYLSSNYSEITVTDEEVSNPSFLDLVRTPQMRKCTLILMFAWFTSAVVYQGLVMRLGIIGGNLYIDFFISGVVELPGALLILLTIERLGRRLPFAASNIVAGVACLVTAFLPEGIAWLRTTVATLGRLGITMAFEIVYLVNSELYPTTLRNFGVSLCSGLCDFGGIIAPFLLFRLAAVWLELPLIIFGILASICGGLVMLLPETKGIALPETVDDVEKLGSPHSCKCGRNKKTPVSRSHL
Method: In order to measure an activity that inhibits OCT3 from incorporating a substrate (OCT3 inhibition activity) for each compound, histamine incorporation experiments as described below were performed.
Histamine incorporation experiments were performed in accordance with a method disclosed in Br J Pharmacol. 2002; 136(6): 829-836. In the experiments, HEK293 cells were used. The HEK293 cell is a human embryonal renal cell strain expressing human organic cation transporter 3 (hOCT3). The HEK 293 cells were inoculated onto 24-well plates at 1.5×10^5 cells/well, and were cultivated overnight in a carbon dioxide incubator. Test substances were dissolved in 100% DMSO solution and then dissolved in HBSS-HEPES solution (buffer solution prepared by dissolving 9.7 g Hank's Balanced Salt, 1.4% sodium bicarbonate 25 mL, and 1M HEPES 25 mL in 940 mL ultra pure water, and by adjusting to pH7.4 with 1M sodium hydroxide). After removing culture media for cell culture, pretreatment was performed for 5 minutes with 1 mL HBSS-HEPES solution. Then, the test substance and [3H]histamine (final concentration 100 nM) were added to the cells and reacted for 1 minute at room temperature. After the reaction was completed, the reaction was stopped by ice-cooled HBSS-HEPES solution, extracellular fluid was aspirated by an aspirator, and then the cells were washed twice with HBSS-HEPES. After washing, the cells were dissolved in 0.5M sodium hydroxide solution. The amount of histamine in the cells was found by measuring a radioactivity in a cell lysis solution by a liquid scintillation counter. Protein content in the cells was measured by Lowry method (J Biol Chem. 1951; 193(1): 265-75) by using the cell lysis solution, and translated into histamine incorporation amount per protein content for each experiment. A histamine incorporation rate (%) in the presence of 30 μM of the test substance was calculated by regarding a histamine incorporation amount in a case of no incorporation inhibitor as 100% (control) of histamine incorporation rate. A value (%) obtained by subtracting the histamine incorporation rate from 100(%) was calculated as an OCT3 inhibition rate (%).
Note that a histamine incorporation rate (%) in the presence of 10 μM of the test substance was calculated by regarding a histamine incorporation amount in a case of no incorporation inhibitor as 100% (control) of histamine incorporation rate. A value (%) obtained by subtracting the histamine incorporation rate from 100(%) was calculated as an OCT3 inhibition rate (%). […]

[2] = biological target: T1, human organic cation transporter 3 (hOCT3); assay: as above; assay type: cell-based; settings: control curve; for IC80: HEK293

CN(C)c1nc(CSCC/C(N)=N/S(=O)(=O)C(F)(F)F)cs1 [SR-2005]
OCT3 Inhibition Rate (%) [1]: −7.8%

Cc1nc(CCSCc2csc(N(C)C)n2)[nH]c(=O)c1CCc1ccccc1 [SR-2011]
OCT3 Inhibition Rate (%) [1]: 37.9%

NC(N)=Nc1cccc(CSCC/C(N)=N/S(=O)(=O)C(F)(F)F)c1 [SR-2020]
OCT3 Inhibition Rate (%) [1]: 25.4%

NC(N)=Nc1cccc(CSCC/C(N)=N/S(=O)(=O)C(F)(F)F)n1 [SR-2022]
remaining activity at 10 µM [1]: 50% | remaining activity at 30 µM [1]: 21% | inhibition at 10 µM [1]: 50% | inhibition at 30 µM [1]: 79% | IC80 [2]: 30 µM | IC50 [2]: 10.5 µM

NC(N)=Nc1cc(CSCC/C(N)=N/S(=O)(=O)C(F)(F)F)ccn1 [SR-2023]
remaining activity at 10 µM [1]: 36.7% | remaining activity at 30 µM [1]: 15% | inhibition at 10 µM [1]: 63.3% | inhibition at 30 µM [1]: 85% | IC80 [2]: 28 µM | IC50 [2]: 6.5 µM

Cc1nc(CCSCc2cccc(N=C(N)N)n2)[nH]c(=O)c1CCc1ccccc1 [SR-2036]
remaining activity at 10 µM [1]: 33.7% | remaining activity at 30 µM [1]: 15.4% | inhibition at 10 µM [1]: 66.3% | inhibition at 30 µM [1]: 84.6% | IC80 [2]: 27 µM | IC50 [2]: 5.9 µM

CN/C(=C\[N+](=O)[O-])NCCSCc1csc(N=C(N)N)n1 [SR-2044]
OCT3 Inhibition Rate (%) [1]: 7.9%

NC(N)=Nc1nc(CSCCNC(=O)CO)cs1 [SR-2045]
remaining activity at 10 µM [1]: 56.6% | remaining activity at 30 µM [1]: 35.2% | inhibition at 10 µM [1]: 43.4% | inhibition at 30 µM [1]: 64.8% | IC80 [2]: 56 µM | IC50 [2]: 12.4 µM

NC(N)=Nc1nc(CSCCc2ncc(CCc3ccccc3)o2)cs1 [SR-2051]
OCT3 Inhibition Rate (%) [1]: 38.8%

Cc1nc(CCCOc2cc(N=C(N)N)ccn2)[nH]c(=O)c1CCc1ccccc1 [SR-2064]
OCT3 Inhibition Rate (%) [1]: 17.5%

NC(N)=Nc1nc(CCCC/C(N)=N/S(=O)(=O)C(F)(F)F)cs1 [SR-2065]
remaining activity at 10 µM [1]: 72.9% | remaining activity at 30 µM [1]: 41.5% | inhibition at 10 µM [1]: 27.1% | inhibition at 30 µM [1]: 58.5% | IC80 [2]: 90 µM | IC50 [2]: 24 µM

NC(N)=Nc1nc(CCCC/C(N)=N/S(N)(=O)=O)cs1 [SR-2066]
remaining activity at 30 µM [1]: 58.1% | inhibition at 30 µM [1]: 41.9%

N=C(N)CCCCc1csc(N=C(N)N)n1 [SR-2068, 5-[2-(diaminomethyleneamino)thiazole-4-yl]pentaimideamide]
OCT3 Inhibition Rate (%) [1]: 28.5%

N#C/N=C(\N)NCCCCc1csc(N=C(N)N)n1 [SR-2069]
remaining activity at 30 µM [1]: 48.6% | inhibition at 30 µM [1]: 51.4%

N=C(N)NCCCCc1csc(N=C(N)N)n1 [SR-2071]
OCT3 Inhibition Rate (%) [1]: 27.0%

NC(N)=Nc1nc(CCCCNC(=O)CO)cs1 [SR-2073]
remaining activity at 30 µM [1]: 52.9% | inhibition at 30 µM [1]: 47.1%

CNC(=O)CCCCc1csc(N=C(N)N)n1 [SR-2075]
OCT3 Inhibition Rate (%) [1]: 23.9%

Cc1nc(CCCCc2csc(N=C(N)N)n2)[nH]c(=O)c1CCc1ccccc1 [SR-2076]
remaining activity at 10 µM [1]: 14.8% | remaining activity at 30 µM [1]: 11.8% | inhibition at 10 µM [1]: 85.2% | inhibition at 30 µM [1]: 88.2% | IC80 [2]: 8 µM | IC50 [2]: 1.9 µM

CNC(=O)CCSCc1csc(N=C(N)N)n1 [SR-2203]
OCT3 Inhibition Rate (%) [1]: 16.3%

CNCCCCc1csc(N=C(N)N)n1 [SR-2204]
OCT3 Inhibition Rate (%) [1]: 3.4%

CC(C)c1nc(CSCCC(N)=NS(N)(=O)=O)cs1 [SR-2207, (Z)-3-((2-isopropylthiazol-4-yl)methylthio)-N′-sulfamoylpropanimidamide]
OCT3 Inhibition Rate (%) [1]: 6.7%

Cc1nc(CCSCc2csc(N=C3NCCN3)n2)[nH]c(=O)c1CCc1ccccc1 [SR-2213]
OCT3 Inhibition Rate (%) [1]: 45.8%

NC(N)=Nc1nc(CSCCC(N)=NS(=O)(=O)C(F)(F)F)cs1 [SR-2216]
OCT3 Inhibition Rate (%) [1]: 61.5%

Cc1nc(CCSCc2ccnc(N=C(N)N)c2)[nH]c(=O)c1CCc1ccccc1 [SR-2219]
remaining activity at 10 µM [1]: 51.5% | remaining activity at 30 µM [1]: 22.6% | inhibition at 10 µM [1]: 48.5% | inhibition at 30 µM [1]: 77.4% | IC80 [2]: 49 µM | IC50 [2]: 19 µM

CC(=O)NC(=O)CCSCc1csc(N=C(N)N)n1 [SR-2225]
OCT3 Inhibition Rate (%) [1]: 30.4%

NC(N)=Nc1nc(CSCCC(=O)NC(=O)c2ccccc2)cs1 [SR-2226]
OCT3 Inhibition Rate (%) [1]: 21.8%

CSc1nc(CSCCC(N)=NS(N)(=O)=O)cs1 [SR-2227]
OCT3 Inhibition Rate (%) [1]: 13.8%

Cc1nc(CSCC/C(N)=N/S(N)(=O)=O)cs1 [SR-2228]
OCT3 Inhibition Rate (%) [1]: 17.6%

NC(N)=Nc1cc(CSCCC(N)=NS(N)(=O)=O)ccn1 [SR-2229]
remaining activity at 30 µM [1]: 55.8% | inhibition at 30 µM [1]: 44.2%

NC(N)=Nc1cccc(CSCCC(N)=NS(N)(=O)=O)n1 [SR-2230]
remaining activity at 30 µM [1]: 41.4% | inhibition at 30 µM [1]: 58.6%

N=C(N)CCSCc1ccc([N+](=O)[O-])o1 [SR-2233]
OCT3 Inhibition Rate (%) [1]: 4.7%

N=C(N)CCSCc1ccc([N+](=O)[O-])n1Cc1ccccc1 [SR-2234]
OCT3 Inhibition Rate (%) [1]: 50.2%

Cc1nc(CCSCc2ccc([N+](=O)[O-])n2Cc2ccccc2)[nH]c(=O)c1CCc1ccccc1 [SR-2235]
OCT3 Inhibition Rate (%) [1]: 8.7%

N=C(N)NCc1csc(N=C(N)N)n1 [SR-2236]
OCT3 Inhibition Rate (%) [1]: −1.4%

Cc1nc(CSCC/C(N)=N/S(=O)(=O)C(F)(F)F)cs1 [SR-2238]
OCT3 Inhibition Rate (%) [1]: −7.4%

Cc1nc(CSCCc2nc(=O)c(CCc3ccccc3)c(C)[nH]2)cs1 [SR-2239]
OCT3 Inhibition Rate (%) [1]: 33.2%

NC(CCSCc1cscn1)=NS(N)(=O)=O [SR-3001]
OCT3 Inhibition Rate (%) [1]: −14.7%

NC(CCSCc1cscn1)=NS(=O)(=O)C(F)(F)F [SR-3002]
OCT3 Inhibition Rate (%) [1]: −0.2%

Cc1[nH]c(CCSCc2cscn2)nc(=O)c1CCc1ccccc1 [SR-3003]
OCT3 Inhibition Rate (%) [1]: 40.6%

CSc1nc(CSCCC(N)=NS(=O)(=O)C(F)(F)F)cs1 [SR-3012]
OCT3 Inhibition Rate (%) [1]: −8.1%

CC(C)c1nc(CSCCC(N)=NS(=O)(=O)C(F)(F)F)cs1 [SR-3021]
OCT3 Inhibition Rate (%) [1]: −4.0%

NC(N)=Nc1nc(CSc2ccc(F)cc2)cs1 [SR-3123]
OCT3 Inhibition Rate (%) [1]: 47.2%

NC(N)=Nc1nc(COCc2ccc(F)cc2)cs1 [SR-3129]
OCT3 Inhibition Rate (%) [1]: 20.6%

NC(N)=Nc1nc(CCCc2ccc(F)cc2)cs1 [SR-3131]
OCT3 Inhibition Rate (%) [1]: 22.3%

NC(N)=Nc1nc(CNCCc2ccc(F)cc2)cs1 [SR-3136]
OCT3 Inhibition Rate (%) [1]: 28.6%

NC(N)=Nc1nc(CSCCc2ccc(F)cc2)cs1 [SR-3137]
OCT3 Inhibition Rate (%) [1]: 33.3%

N=C(NCc1csc(N=C(N)N)n1)NS(N)(=O)=O [SR-3154]
OCT3 Inhibition Rate (%) [1]: −11.5%

NC(N)=Nc1nc(CS/C(N)=N\S(N)(=O)=O)cs1 [SR-3155]
OCT3 Inhibition Rate (%) [1]: −10.3%

NC(N)=Nc1nc(CS/C(N)=N/S(=O)(=O)C(F)(F)F)cs1 [SR-3159]
OCT3 Inhibition Rate (%) [1]: 6.2%

NC(N)=Nc1ncc(CSCCC(N)=NS(=O)(=O)c2ccccc2)s1 [SR-3203]
OCT3 Inhibition Rate (%) [1]: 22.2%

N=C(N)CCSCc1csc(N=C2NCCN2)n1 [SR-3208]
OCT3 Inhibition Rate (%) [1]: 8.7%

CCCCN/C(N)=N/c1nc(CSCCC(=N)N)cs1 [SR-3209]
OCT3 Inhibition Rate (%) [1]: 43.0%
